Experimental data from US10005818B2, “Derivative peptide compounds and methods of use” (REALTA HOLDINGS, LLC, priority 2010, dated 2018).
Square brackets hold non-standard residues; d marks the D form. Peptide text beside a SMILES is read from it. Sar = CNCC(=O)O

Tests used:
[1] = tested on: complement activation in factor B-depleted human sera; type: biochemical
Description: Peptides were diluted to 0.77 mM in factor B-depleted human sera (Complement Technologies, Inc.) and incubated for 1 hour at 37° C. These peptides were then diluted with GVBS^++ to equal 2.5/s serum, of which 0.25 ml was combined with 0.4 ml of GVBS^++ and 0.1 ml of sensitized sheep red blood cells (RBCs) and again incubated for 1 hour at 37° C. The procedure was stopped by the addition of 4.0 ml of GVBS^−−, centrifuged for 5 minutes at 1,620×g, and the absorbance of the supernatants was read at 412 nm in a spectrophotometer. The percent lysis of each sample was standardized to that of the serum only control.
The final concentration of peptide in factor B-depleted serum was 0.77 mM. Each peptide was evaluated in triplicate and the mean values are reported. […] In the hemolytic assay, soluble peptides are standardized to water and insoluble peptides standardized to DMSO.
Polar Assortant peptides were serially diluted in undiluted factor B-depleted human sera (Complement Technologies, Inc.) and incubated for 1 hour at 37° C. Water, GVBS^++ and DMSO were included as controls. These peptides were then diluted with GVBS^++ to equal 2.5/s serum, of which 0.25 ml was combined with 0.4 ml of GVBS^++ and 0.1 ml of sensitized sheep red blood cells (RBCs) and again incubated for 1 hour at 37° C. The procedure was stopped by the addition of 4.0 ml of GVBS^−−, centrifuged for 5 minutes at 1,620×g, and the absorbance of the supernatants was read at 412 nm in a spectrophotometer. The percent lysis of each sample was standardized to that of the serum only control.
The final concentration of peptide in factor B-depleted serum was 0.77 mM. […] In the hemolytic assay, soluble peptides were standardized to water and insoluble peptides standardized to DMSO.
The final concentration of peptide in factor B-depleted serum was 0.77 mM. […] In the hemolytic assay, soluble peptides are standardized to water and insoluble peptides standardized to DMSO.

Solubility in water = type: physicochemical
[2] = Table 7, PEGylated and sarcosine/alanine substitution peptides
[3] = Table 5, sarcosine substitution peptides

| Compound | Hemolysis (%) [1] [%] | Solubility in water (Solubility in water; [2]) | solubility in water / aqueous solutions (Solubility in water) | Solubility in water (Solubility in water; [3]) |
| --- | --- | --- | --- | --- |
| CC[C@H](C)[C@H](N)C(=O)N[C@@H](C)C(=O)N[C@@H](CC(C)C)C(=O)N[C@H](C(=O)N[C@@H](CC(C)C)C(=O)N[C@@H](CCC(=O)O)C(=O)N1CCC[C@H]1C(=O)N[C@H](C(=O)N(C)CC(=O)N[C@@H](CCC(N)=O)C(=O)N[C@@H](CCC(=O)O)C(=O)N[C@@H](CCCNC(=N)N)C(=O)N[C@@H](C)C(=O)N[C@@H](C)C(=O)O)[C@@H](C)CC)[C@@H](C)CC [PA-C9SarD10] (H-IALILEPI[Sar]QERAA-OH) | 100.52 | Yes | – | – |
| CC[C@H](C)[C@H](N)C(=O)N[C@@H](C)C(=O)N[C@@H](CC(C)C)C(=O)N[C@H](C(=O)N[C@@H](CC(C)C)C(=O)N[C@@H](CCC(=O)O)C(=O)N1CCC[C@H]1C(=O)N[C@H](C(=O)N(C)CC(=O)N[C@@H](CS)C(=O)N[C@@H](CCC(N)=O)C(=O)N[C@@H](CCC(=O)O)C(=O)N[C@@H](CCCNC(=N)N)C(=O)N[C@@H](C)C(=O)N[C@@H](C)C(=O)O)[C@@H](C)CC)[C@@H](C)CC [PA-C9Sar] (H-IALILEPI[Sar]CQERAA-OH; N-terminus and C-terminus assumed) | 5.63 | – | water soluble | Yes |
| CC[C@H](C)[C@H](N)C(=O)N[C@@H](C)C(=O)N[C@@H](CC(C)C)C(=O)N[C@H](C(=O)N[C@@H](CC(C)C)C(=O)N[C@@H](CCC(=O)O)C(=O)N1CCC[C@H]1C(=O)N[C@H](C(=O)N[C@@H](CS)C(=O)N(C)CC(=O)N[C@@H](CCC(N)=O)C(=O)N[C@@H](CCC(=O)O)C(=O)N[C@@H](CCCNC(=N)N)C(=O)N[C@@H](C)C(=O)N[C@@H](C)C(=O)O)[C@@H](C)CC)[C@@H](C)CC [PA-C10Sar] | 56.18 | – | – | No |
| CC[C@H](C)[C@H](N)C(=O)N[C@@H](C)C(=O)N[C@@H](CC(C)C)C(=O)N[C@H](C(=O)N[C@@H](CC(C)C)C(=O)N(C)CC(=O)N1CCC[C@H]1C(=O)N[C@H](C(=O)N[C@@H](CS)C(=O)N[C@@H](CS)C(=O)N[C@@H](CCC(N)=O)C(=O)N[C@@H](CCC(=O)O)C(=O)N[C@@H](CCCNC(=N)N)C(=O)N[C@@H](C)C(=O)N[C@@H](C)C(=O)NCCOCCOCCOCCOCCOCCOCCOCCOCCOCCOCCOCCOCCOCCOCCOCCOCCOCCOCCOCCOCCOCCOCCOCCOCCC(=O)O)[C@@H](C)CC)[C@@H](C)CC [PA-E6Sar-dPEG24] | 12.88 | Yes | – | – |
| CC[C@H](C)[C@H](N)C(=O)N[C@@H](C)C(=O)N[C@@H](CC(C)C)C(=O)N[C@H](C(=O)N[C@@H](CC(C)C)C(=O)N(C)CC(=O)N1CCC[C@H]1C(=O)N[C@H](C(=O)N[C@@H](CS)C(=O)N[C@@H](CS)C(=O)N[C@@H](CCC(N)=O)C(=O)N[C@@H](CCC(=O)O)C(=O)N[C@@H](CCCNC(=N)N)C(=O)N[C@@H](C)C(=O)N[C@@H](C)C(=O)O)[C@@H](C)CC)[C@@H](C)CC [PA-E6Sar] | 5.19 | – | – | No |
| CC[C@H](C)[C@H](NC(=O)[C@H](CC(C)C)NC(=O)[C@H](C)NC(=O)CNC)C(=O)N[C@@H](CC(C)C)C(=O)N[C@@H](CCC(=O)O)C(=O)N1CCC[C@H]1C(=O)N[C@H](C(=O)N[C@@H](CS)C(=O)N[C@@H](CS)C(=O)N[C@@H](CCC(N)=O)C(=O)N[C@@H](CCC(=O)O)C(=O)N[C@@H](CCCNC(=N)N)C(=O)N[C@@H](C)C(=O)N[C@@H](C)C(=O)O)[C@@H](C)CC [PA-I1Sar] | 84.49 | – | – | No |
| CC[C@H](C)[C@H](N)C(=O)N[C@@H](C)C(=O)N[C@@H](CC(C)C)C(=O)N(C)CC(=O)N[C@@H](CC(C)C)C(=O)N[C@@H](CCC(=O)O)C(=O)N1CCC[C@H]1C(=O)N[C@H](C(=O)N[C@@H](CS)C(=O)N[C@@H](CS)C(=O)N[C@@H](CCC(N)=O)C(=O)N[C@@H](CCC(=O)O)C(=O)N[C@@H](CCCNC(=N)N)C(=O)N[C@@H](C)C(=O)N[C@@H](C)C(=O)O)[C@@H](C)CC [PA-I4Sar] (H-IAL[Sar]LEPICCQERAA-OH; N-terminus and C-terminus assumed) | 93.19 | – | – | Yes |
| CC[C@H](C)[C@H](N)C(=O)N[C@@H](C)C(=O)N[C@@H](CC(C)C)C(=O)N[C@H](C(=O)N[C@@H](CC(C)C)C(=O)N[C@@H](CCC(=O)O)C(=O)N1CCC[C@H]1C(=O)N(C)CC(=O)N[C@@H](CS)C(=O)N[C@@H](CS)C(=O)N[C@@H](CCC(N)=O)C(=O)N[C@@H](CCC(=O)O)C(=O)N[C@@H](CCCNC(=N)N)C(=O)N[C@@H](C)C(=O)N[C@@H](C)C(=O)O)[C@@H](C)CC [PA-I8Sar, IALILEP(Sar)CCQERAA] | 33.92 | – | – | Yes |
| CC[C@H](C)[C@H](N)C(=O)N[C@@H](C)C(=O)N(C)CC(=O)N[C@H](C(=O)N[C@@H](CC(C)C)C(=O)N[C@@H](CCC(=O)O)C(=O)N1CCC[C@H]1C(=O)N[C@H](C(=O)N[C@@H](CS)C(=O)N[C@@H](CS)C(=O)N[C@@H](CCC(N)=O)C(=O)N[C@@H](CCC(=O)O)C(=O)N[C@@H](CCCNC(=N)N)C(=O)N[C@@H](C)C(=O)N[C@@H](C)C(=O)O)[C@@H](C)CC)[C@@H](C)CC [PA-L3Sar] (H-IA[Sar]ILEPICCQERAA-OH; N-terminus and C-terminus assumed) | 87.36 | – | – | Yes |
| CC[C@H](C)[C@H](N)C(=O)N[C@@H](C)C(=O)N[C@@H](CC(C)C)C(=O)N[C@H](C(=O)N(C)CC(=O)N[C@@H](CCC(=O)O)C(=O)N1CCC[C@H]1C(=O)N[C@H](C(=O)N[C@@H](CS)C(=O)N[C@@H](CS)C(=O)N[C@@H](CCC(N)=O)C(=O)N[C@@H](CCC(=O)O)C(=O)N[C@@H](CCCNC(=N)N)C(=O)N[C@@H](C)C(=O)N[C@@H](C)C(=O)O)[C@@H](C)CC)[C@@H](C)CC [PA-L5Sar] (H-IALI[Sar]EPICCQERAA-OH; N-terminus and C-terminus assumed) | 85.13 | – | – | Yes |
| CC[C@H](C)[C@H](N)C(=O)N[C@@H](C)C(=O)N[C@@H](CC(C)C)C(=O)N[C@H](C(=O)N[C@@H](CC(C)C)C(=O)N[C@@H](CCC(=O)O)C(=O)N(C)CC(=O)N[C@H](C(=O)N(C)CC(=O)N[C@@H](CS)C(=O)N[C@@H](CCC(N)=O)C(=O)N[C@@H](CCC(=O)O)C(=O)N[C@@H](CCCNC(=N)N)C(=O)N[C@@H](C)C(=O)N[C@@H](C)C(=O)O)[C@@H](C)CC)[C@@H](C)CC [PA-P7SarC9Sar, IALILE(Sar)I(Sar)CQERAA] (H-IALILE[Sar]I[Sar]CQERAA-OH) | 82.72 | Yes | – | – |
| CC[C@H](C)[C@H](N)C(=O)N[C@@H](C)C(=O)N[C@@H](CC(C)C)C(=O)N[C@H](C(=O)N[C@@H](CC(C)C)C(=O)N[C@@H](CCC(=O)O)C(=O)N(C)CC(=O)N[C@H](C(=O)N[C@@H](CS)C(=O)N[C@@H](CS)C(=O)N[C@@H](CCC(N)=O)C(=O)N[C@@H](CCC(=O)O)C(=O)N[C@@H](CCCNC(=N)N)C(=O)N[C@@H](C)C(=O)N[C@@H](C)C(=O)O)[C@@H](C)CC)[C@@H](C)CC [PA-P7Sar] (H-IALILE[Sar]ICCQERAA-OH; N-terminus and C-terminus assumed) | 3.01 | – | water soluble | Yes |
| CC[C@H](C)[C@H](N)C(=O)N[C@@H](C)C(=O)N[C@@H](CC(C)C)C(=O)N[C@H](C(=O)N[C@@H](CC(C)C)C(=O)N[C@@H](CCC(=O)O)C(=O)N1CCC[C@H]1C(=O)N[C@H](C(=O)N[C@@H](CS)C(=O)N[C@@H](CS)C(=O)N(C)CC(=O)N[C@@H](CCC(=O)O)C(=O)N[C@@H](CCCNC(=N)N)C(=O)N[C@@H](C)C(=O)N[C@@H](C)C(=O)NCCOCCOCCOCCOCCOCCOCCOCCOCCOCCOCCOCCOCCOCCOCCOCCOCCOCCOCCOCCOCCOCCOCCOCCOCCC(=O)O)[C@@H](C)CC)[C@@H](C)CC [PA-Q11Sar-dPEG24] | 12.04 | Yes | – | – |
| CC[C@H](C)[C@H](N)C(=O)N[C@@H](C)C(=O)N[C@@H](CC(C)C)C(=O)N[C@H](C(=O)N[C@@H](CC(C)C)C(=O)N[C@@H](CCC(=O)O)C(=O)N1CCC[C@H]1C(=O)N[C@H](C(=O)N[C@@H](CS)C(=O)N[C@@H](CS)C(=O)N[C@@H](CCC(N)=O)C(=O)N[C@@H](CCC(=O)O)C(=O)N(C)CC(=O)N[C@@H](C)C(=O)N[C@@H](C)C(=O)NCCOCCOCCOCCOCCOCCOCCOCCOCCOCCOCCOCCOCCOCCOCCOCCOCCOCCOCCOCCOCCOCCOCCOCCOCCC(=O)O)[C@@H](C)CC)[C@@H](C)CC [PA-R13Sar-dPEG24] | 4.26 | Yes | – | – |
| CC[C@H](C)[C@H](N)C(=O)N[C@@H](C)C(=O)N[C@@H](CC(C)C)C(=O)N[C@H](C(=O)N[C@@H](CC(C)C)C(=O)N[C@@H](CCC(=O)O)C(=O)N1CCC[C@H]1C(=O)N[C@H](C(=O)N[C@@H](CS)C(=O)N[C@@H](CS)C(=O)N[C@@H](CCC(N)=O)C(=O)N[C@@H](CCC(=O)O)C(=O)N(C)CC(=O)N[C@@H](C)C(=O)N[C@@H](C)C(=O)O)[C@@H](C)CC)[C@@H](C)CC [PA-R13Sar] | 3.42 | – | – | No |
